Patent publication US20130123460A1, “PEPTIDE FOR IMPROVING BIOSTABILITY OF BIOACTIVE SUBSTANCE, AND BIOACTIVE SUBSTANCE HAVING IMPROVED BIOSTABILITY” (priority 2010, published 2013)
Read-outs that look alike come from different tables or passages of the source. Where no end group is shown, it is not given here.

Key:
[1] = Plasma stability of GLP-1 peptide complex (remaining rate in rat plasma, HPLC/MS); format: in vitro ADME, SD rats; details: for remaining at 8 h, 0.5 μmol/L / remaining at 48 h, 0.5 μmol/L: SD
Text: SD rats were anesthetized with diethyl ether, whole blood was collected and a plasma fraction was separated therefrom.

[2] = molecular target: T1, endogenous GLP-1 receptor (Mus musculus, UniProt O35659); experiment: Insulin secretion capacity of GLP-1 peptide complex in MIN 6 cells; format: cell-based; details: for Insulin secretion capacity (% of control): MIN 6 cells, 1000 pM, 15 mM glucose, control = native GLP-1 at 1000 pM;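 as to all read-outs here: insulin released into the supernatant of MIN 6 cultures quantified by ELISA, absorbance read at 450 nm with 620 nm reference after substrate addition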
T1 construct: expressing an endogenous GLP-1 receptor; endogenous in cells; host or cells: MIN 6 mouse insulinoma cells (obtained from a person)
T1 sequence (O35659 22-463): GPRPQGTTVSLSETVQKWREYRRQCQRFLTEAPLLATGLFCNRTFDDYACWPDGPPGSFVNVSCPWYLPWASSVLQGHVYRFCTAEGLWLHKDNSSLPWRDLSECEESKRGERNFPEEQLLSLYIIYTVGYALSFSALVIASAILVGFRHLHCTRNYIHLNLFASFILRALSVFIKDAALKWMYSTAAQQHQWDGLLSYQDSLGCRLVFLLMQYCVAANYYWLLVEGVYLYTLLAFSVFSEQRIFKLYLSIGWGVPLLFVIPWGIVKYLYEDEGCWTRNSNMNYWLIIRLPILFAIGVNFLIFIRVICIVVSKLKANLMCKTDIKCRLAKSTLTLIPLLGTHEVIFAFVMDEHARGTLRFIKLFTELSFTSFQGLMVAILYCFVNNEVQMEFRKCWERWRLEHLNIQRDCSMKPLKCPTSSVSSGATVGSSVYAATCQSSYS
Experimental: MIN 6 was seeded on a multi-plate, which was cultivated at 37° C. for 48 hours. After that, the culture was washed twice with a KRH buffer solution including 2 mM glucose solution (including NaCl 119 mM, KCl 4.74 mM, CaCl2 2.54 mM, MgCl2 1.19 mM, KH2PO4 1.19 mM, 10 mM HEPES buffer solution pH7.3, and 0.1% BSA), and then it was incubated at 37° C. for one hour. […] A supernatant thereof was recovered, and an amount of insulin secreted was measured. The measurement of the insulin was performed in an enzyme-linked immunosorbent assay (ELISA), and an absorbance was measured at 450 nm (a sub-wavelength: 620 nm) after the addition of a substrate.
EC50 values thereof were calculated in the same manner as in Part 2, and the influence on the bioactivity caused by the addition of the partial peptide of the GA module were inspected in detail.
The analysis was performed using the following calculation formula.

[3] = rat plasma, 0.5 μmol/L, 37° C., 8 hours, relative to 0 hour = 100%, read-out: Remaining rate in plasma after 8 hours (%)
[4] = rat plasma, 0.5 μmol/L, 37° C., 48 hours, relative to 0 hour = 100%, read-out: Remaining rate in plasma after 48 hours (%)

remaining at 8 h, 0.5 μmol/L ([1]; rat, plasma) [%] | remaining at 48 h, 0.5 μmol/L ([1]; rat, plasma) [%] | Insulin secretion capacity (% of control) [2] [%] | Compound | other results
88 | 87 | 105 | HSEGTFTSDVSSYLEGQAAKEFIAWLVKGAKTVEGVKALIDEIL-NH2 [Example 13, [Ser8]-GLP-1(7-35)-GAm(28-42)-NH2] | –
35 | 0 | – | CC[C@H](C)[C@H](NC(=O)[C@H](CCC(=O)O)NC(=O)[C@H](CC(=O)O)NC(=O)[C@@H](NC(=O)CNC(=O)[C@H](CCCCN)NC(=O)[C@@H](NC(=O)[C@H](CC(C)C)NC(=O)[C@H](Cc1c[nH]c2ccccc12)NC(=O)[C@H](C)NC(=O)[C@@H](NC(=O)[C@H](Cc1ccccc1)NC(=O)[C@H](CCC(=O)O)NC(=O)[C@H](CCCCN)NC(=O)[C@H](C)NC(=O)[C@H](C)NC(=O)[C@H](CCC(N)=O)NC(=O)CNC(=O)[C@H](CCC(=O)O)NC(=O)[C@H](CC(C)C)NC(=O)[C@H](Cc1ccc(O)cc1)NC(=O)[C@H](CO)NC(=O)[C@H](CO)NC(=O)[C@@H](NC(=O)[C@H](CC(=O)O)NC(=O)[C@H](CO)NC(=O)[C@@H](NC(=O)[C@H](Cc1ccccc1)NC(=O)[C@@H](NC(=O)CNC(=O)[C@H](CCC(=O)O)NC(=O)[C@H](C)NC(=O)[C@@H](N)Cc1c[nH]cn1)[C@@H](C)O)[C@@H](C)O)C(C)C)[C@@H](C)CC)C(C)C)[C@@H](C)CC)C(N)=O [Comparative Example 10, GLP-1(7-35)-GAm(38-41)-NH2, reference compound] | –
77 | 117 | 115 | HSEGTFTSDVSSYLEGQAAKEFIAWLVKGKALIDEILAA-NH2 [Example 4, [Ser8]-GLP-1(7-35)-GAm(35-44)-NH2] | –
– | – | 109 | [Ser8]-GLP-1(7-35)-GAm(32-44)-NH2 [Example 10] | –
80 | 93 | – | HSEGTFTSDVSSYLEGQAAKEFIAWLVKGKNLINNAKTVEGVKALIDEILAALP-NH2 [Example 17, [Ser8]-GLP-1(7-35)-GAm(22-46)-NH2] | –
0 | 0 | – | CC[C@H](C)[C@H](NC(=O)CNC(=O)[C@H](CCCCN)NC(=O)[C@@H](NC(=O)[C@H](CC(C)C)NC(=O)[C@H](Cc1c[nH]c2ccccc12)NC(=O)[C@H](C)NC(=O)[C@@H](NC(=O)[C@H](Cc1ccccc1)NC(=O)[C@H](CCC(=O)O)NC(=O)[C@H](CCCCN)NC(=O)[C@H](C)NC(=O)[C@H](C)NC(=O)[C@H](CCC(N)=O)NC(=O)CNC(=O)[C@H](CCC(=O)O)NC(=O)[C@H](CC(C)C)NC(=O)[C@H](Cc1ccc(O)cc1)NC(=O)[C@H](CO)NC(=O)[C@H](CO)NC(=O)[C@@H](NC(=O)[C@H](CC(=O)O)NC(=O)[C@H](CO)NC(=O)[C@@H](NC(=O)[C@H](Cc1ccccc1)NC(=O)[C@@H](NC(=O)CNC(=O)[C@H](CCC(=O)O)NC(=O)[C@H](C)NC(=O)[C@@H](N)Cc1c[nH]cn1)[C@@H](C)O)[C@@H](C)O)C(C)C)[C@@H](C)CC)C(C)C)C(=O)N[C@@H](CC(=O)O)C(=O)N[C@@H](CCC(=O)O)C(N)=O [Comparative Example 11, GLP-1(7-35)-GAm(38-40)-NH2, reference compound] | –
– | – | 125 | [Ser8]-GLP-1(7-35)-GAm(38-42)-NH2 [Example 1] | –
– | – | 120 | [Ser8]-GLP-1(7-35)-GAm(38-44)-NH2 [Example 2] | –
– | – | 105 | [Ser8]-GLP-1(7-35)-GAm(28-44)-NH2 [Example 14] | Insulin secretion capacity (activity) compared with native GLP-1, in words ([2]; MIN 6 cells, 30, 100, 300 or 1000 pM (FIG. 2, FIG. 3)): almost the same activity as that of the native GLP-1

Second part, the compound before the results:

Compound | remaining at 8 h, 0.5 μmol/L ([1]; rat, plasma) [%] | remaining at 48 h, 0.5 μmol/L ([1]; rat, plasma) [%] | Insulin secretion capacity (% of control) [2] [%] | other results
HSEGTFTSDVSSYLEEEAAKEFIAWLVKGGPSSGAPPPS-NH2 [Comparative Example 13, reference compound] | 57 | 12 | – | –
GLP-1(7-36)-NH2 [Comparative Example 1, reference compound] | – | – | 100 | –
CC[C@H](C)[C@H](NC(=O)[C@H](Cc1ccccc1)NC(=O)[C@H](CCC(=O)O)NC(=O)[C@H](CCCCN)NC(=O)[C@H](C)NC(=O)[C@H](C)NC(=O)[C@H](CCC(N)=O)NC(=O)CNC(=O)[C@H](CCC(=O)O)NC(=O)[C@H](CC(C)C)NC(=O)[C@H](Cc1ccc(O)cc1)NC(=O)[C@H](CO)NC(=O)[C@H](CO)NC(=O)[C@@H](NC(=O)[C@H](CC(=O)O)NC(=O)[C@H](CO)NC(=O)[C@@H](NC(=O)[C@H](Cc1ccccc1)NC(=O)[C@@H](NC(=O)CNC(=O)[C@H](CCC(=O)O)NC(=O)[C@H](CO)NC(=O)[C@@H](N)Cc1c[nH]cn1)[C@@H](C)O)[C@@H](C)O)C(C)C)C(=O)N[C@@H](C)C(=O)N[C@@H](Cc1c[nH]c2ccccc12)C(=O)N[C@@H](CC(C)C)C(=O)N[C@H](C(=O)N[C@@H](CCCCN)C(=O)NCC(=O)N[C@@H](CC(C)C)C(=O)N[C@H](C(=O)N[C@@H](CC(=O)O)C(=O)N[C@@H](CCC(=O)O)C(=O)N[C@H](C(=O)N[C@@H](CC(C)C)C(=O)N[C@@H](C)C(=O)N[C@@H](C)C(N)=O)[C@@H](C)CC)[C@@H](C)CC)C(C)C [Example 3, [Ser8]-GLP-1(7-35)-GAm(37-44)-NH2] | – | – | 82 | remaining at 8 h, 0.5 μmol/L [1, 3]: 113%; remaining at 48 h, 0.5 μmol/L [1, 4]: 95%
CC[C@H](C)[C@H](NC(=O)CNC(=O)[C@H](CCCCN)NC(=O)[C@@H](NC(=O)[C@H](CC(C)C)NC(=O)[C@H](Cc1c[nH]c2ccccc12)NC(=O)[C@H](C)NC(=O)[C@@H](NC(=O)[C@H](Cc1ccccc1)NC(=O)[C@H](CCC(=O)O)NC(=O)[C@H](CCCCN)NC(=O)[C@H](C)NC(=O)[C@H](C)NC(=O)[C@H](CCC(N)=O)NC(=O)CNC(=O)[C@H](CCC(=O)O)NC(=O)[C@H](CC(C)C)NC(=O)[C@H](Cc1ccc(O)cc1)NC(=O)[C@H](CO)NC(=O)[C@H](CO)NC(=O)[C@@H](NC(=O)[C@H](CC(=O)O)NC(=O)[C@H](CO)NC(=O)[C@@H](NC(=O)[C@H](Cc1ccccc1)NC(=O)[C@@H](NC(=O)CNC(=O)[C@H](CCC(=O)O)NC(=O)[C@H](C)NC(=O)[C@@H](N)Cc1c[nH]cn1)[C@@H](C)O)[C@@H](C)O)C(C)C)[C@@H](C)CC)C(C)C)C(=O)N[C@@H](CC(=O)O)C(=O)N[C@@H](CCC(=O)O)C(=O)N[C@H](C(=O)N[C@@H](CC(C)C)C(N)=O)[C@@H](C)CC [Example 5, GLP-1(7-35)-GAm(38-42)-NH2] | – | – | 112 | remaining at 8 h, 0.5 μmol/L [1, 3]: 73%; remaining at 48 h, 0.5 μmol/L [1, 4]: 83%
CC[C@H](C)[C@H](NC(=O)[C@H](Cc1ccccc1)NC(=O)[C@H](CCC(=O)O)NC(=O)[C@H](CCCCN)NC(=O)[C@H](C)NC(=O)[C@H](C)NC(=O)[C@H](CCC(N)=O)NC(=O)CNC(=O)[C@H](CCC(=O)O)NC(=O)[C@H](CC(C)C)NC(=O)[C@H](Cc1ccc(O)cc1)NC(=O)[C@H](CO)NC(=O)[C@H](CO)NC(=O)[C@@H](NC(=O)[C@H](CC(=O)O)NC(=O)[C@H](CO)NC(=O)[C@@H](NC(=O)[C@H](Cc1ccccc1)NC(=O)[C@@H](NC(=O)CNC(=O)[C@H](CCC(=O)O)NC(=O)[C@H](CO)NC(=O)[C@@H](N)Cc1c[nH]cn1)[C@@H](C)O)[C@@H](C)O)C(C)C)C(=O)N[C@@H](C)C(=O)N[C@@H](Cc1c[nH]c2ccccc12)C(=O)N[C@@H](CC(C)C)C(=O)N[C@H](C(=O)N[C@@H](CCCCN)C(=O)NCC(=O)N[C@@H](CC(=O)O)C(=O)N[C@@H](CCC(=O)O)C(=O)N[C@H](C(=O)N[C@@H](CC(C)C)C(=O)N[C@@H](C)C(=O)N[C@@H](C)C(N)=O)[C@@H](C)CC)C(C)C [Comparative Example 9, [Ser8]-GLP-1(7-35)-GAm(39-44)-NH2, reference compound] | 63 | 0 | – | –
HSEGTFTSDVSSYLEGQAAKEFIAWLVKGAKTVEGVKAL-NH2 [Comparative Example 8, [Ser8]-GLP-1(7-35)-GAm(28-37)-NH2, reference compound] | 27 | 0 | – | –
HSEGTFTSDVSSYLEGQAAKEFIAWLVKGAKTVEGVKALIDE-NH2 [Comparative Example 7, [Ser8]-GLP-1(7-35)-GAm(28-40)-NH2, reference compound] | 81 | 4 | – | –
CC[C@H](C)[C@H](NC(=O)[C@H](Cc1ccccc1)NC(=O)[C@H](CCC(=O)O)NC(=O)[C@H](CCCCN)NC(=O)[C@H](C)NC(=O)[C@H](C)NC(=O)[C@H](CCC(N)=O)NC(=O)CNC(=O)[C@H](CCC(=O)O)NC(=O)[C@H](CC(C)C)NC(=O)[C@H](Cc1ccc(O)cc1)NC(=O)[C@H](CO)NC(=O)[C@H](CO)NC(=O)[C@@H](NC(=O)[C@H](CC(=O)O)NC(=O)[C@H](CO)NC(=O)[C@@H](NC(=O)[C@H](Cc1ccccc1)NC(=O)[C@@H](NC(=O)CNC(=O)[C@H](CCC(=O)O)NC(=O)CNC(=O)[C@@H](N)Cc1c[nH]cn1)[C@@H](C)O)[C@@H](C)O)C(C)C)C(=O)N[C@@H](C)C(=O)N[C@@H](Cc1c[nH]c2ccccc12)C(=O)N[C@@H](CC(C)C)C(=O)N[C@H](C(=O)N[C@@H](CCCCN)C(=O)NCC(=O)N[C@@H](CCCNC(=N)N)C(=O)N1CCC[C@H]1C(=O)N[C@@H](CO)C(=O)N[C@@H](CO)C(N)=O)C(C)C [Comparative Example 12, [Gly8]-GLP-1(7-35)-RPSS-NH2, reference compound] | – | – | – | remaining at 8 h, 0.5 μmol/L [1, 3]: 34%; remaining at 48 h, 0.5 μmol/L [1, 4]: 0%; Remaining rate in plasma after 48 hours (%) ([1]; rat plasma, 0.5 μmol/L, 37° C., 48 hours, relative to 0 hour = 100%): 0%
